The kinase profiling compilation of Christmann-Franck et al. (2016)

What was measured:
Assay in all cases: radiometric filter-binding kinase assay, Kinase HotSpot
Conditions in all cases: compound 0.5 µM; ATP 10 µM
CDK5 CDK5R1 p25 (human) = CDK5 CDK5R1 p25 (human) (UniProt Q00535+Q15078)
[1] = test system: MKNK1 (human), Q9BUB5 [T385D; 165-205 del]
MST4 (human) = MST4 (human) (UniProt Q9P289)
NEK11 (human) = NEK11 (human) (UniProt Q8NG66)
MATK (human) = MATK (human) (UniProt P42679)
HCK (human) = HCK (human) (UniProt P08631)
PRKX (human) = PRKX (human) (UniProt P51817)
MARK4 (human) = MARK4 (human) (UniProt Q96L34)
RPS6KA2 KD1 KD2 (human) = RPS6KA2 KD1 KD2 (human) (UniProt Q15349)
MAP4K4 (human) = MAP4K4 (human) (UniProt O95819)
NUAK2 (human) = NUAK2 (human) (UniProt Q9H093)
STK17A (human) = STK17A (human) (UniProt Q9UEE5)
MARK3 (human) = MARK3 (human) (UniProt P27448)
FYN (human) = FYN (human) (UniProt P06241)
MELK (human) = MELK (human) (UniProt Q14680)
MKNK2 (human) = MKNK2 (human) (UniProt Q9HBH9)
AKT2 (human) = AKT2 (human) (UniProt P31751)
MAPK3 (human) = MAPK3 (human) (UniProt P27361)
EPHA5 (human) = EPHA5 (human) (UniProt P54756)
PIM1 (human) = PIM1 (human) (UniProt P11309)
PBK (human) = PBK (human) (UniProt Q96KB5)
EPHA7 (human) = EPHA7 (human) (UniProt Q15375)
MAP3K8 (human) = MAP3K8 (human) (UniProt P41279)
STK10 (human) = STK10 (human) (UniProt O94804)
[2] = target: TYK2 JH1 catalytic (human) (UniProt P29597)
CDK6 CCND3 (human) = CDK6 CCND3 (human) (UniProt P30281+Q00534)
PKN1 (human) = PKN1 (human) (UniProt Q16512)
CHEK1 (human) = CHEK1 (human) (UniProt O14757)
RPS6KA1 KD1 KD2 (human) = RPS6KA1 KD1 KD2 (human) (UniProt Q15418)
VRK1 (human) = VRK1 (human) (UniProt Q99986)
HIPK3 (human) = HIPK3 (human) (UniProt Q9H422)
EPHB3 (human) = EPHB3 (human) (UniProt P54753)
ROCK1 (human) = ROCK1 (human) (UniProt Q13464)
BMX (human) = BMX (human) (UniProt P51813)
TSSK2 (human) = TSSK2 (human) (UniProt Q96PF2)
PRKCH (human) = PRKCH (human) (UniProt P24723)
STK11 (human) = STK11 (human) (UniProt Q15831)
PNCK (human) = PNCK (human) (UniProt Q6P2M8)
CSNK1G2 (human) = CSNK1G2 (human) (UniProt P78368)
PRKCD (human) = PRKCD (human) (UniProt Q05655)
MET (human) = MET (human) (UniProt P08581)
DYRK2 (human) = DYRK2 (human) (UniProt Q92630)

AKT2 (human), sequence (P31751 whole entry, looked up): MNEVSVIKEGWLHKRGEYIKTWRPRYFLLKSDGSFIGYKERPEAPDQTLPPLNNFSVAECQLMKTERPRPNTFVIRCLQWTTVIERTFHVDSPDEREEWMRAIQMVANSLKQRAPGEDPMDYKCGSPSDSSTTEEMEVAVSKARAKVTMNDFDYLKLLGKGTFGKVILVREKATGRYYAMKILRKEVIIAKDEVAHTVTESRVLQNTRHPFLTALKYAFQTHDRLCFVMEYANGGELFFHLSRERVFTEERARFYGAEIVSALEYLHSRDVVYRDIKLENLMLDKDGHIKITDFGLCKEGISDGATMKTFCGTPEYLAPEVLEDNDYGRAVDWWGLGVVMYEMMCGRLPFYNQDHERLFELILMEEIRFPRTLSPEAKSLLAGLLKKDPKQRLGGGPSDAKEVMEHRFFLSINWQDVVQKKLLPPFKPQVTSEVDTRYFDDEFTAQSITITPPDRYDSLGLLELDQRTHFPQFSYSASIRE
MST4 (human), sequence (Q9P289 whole entry, looked up): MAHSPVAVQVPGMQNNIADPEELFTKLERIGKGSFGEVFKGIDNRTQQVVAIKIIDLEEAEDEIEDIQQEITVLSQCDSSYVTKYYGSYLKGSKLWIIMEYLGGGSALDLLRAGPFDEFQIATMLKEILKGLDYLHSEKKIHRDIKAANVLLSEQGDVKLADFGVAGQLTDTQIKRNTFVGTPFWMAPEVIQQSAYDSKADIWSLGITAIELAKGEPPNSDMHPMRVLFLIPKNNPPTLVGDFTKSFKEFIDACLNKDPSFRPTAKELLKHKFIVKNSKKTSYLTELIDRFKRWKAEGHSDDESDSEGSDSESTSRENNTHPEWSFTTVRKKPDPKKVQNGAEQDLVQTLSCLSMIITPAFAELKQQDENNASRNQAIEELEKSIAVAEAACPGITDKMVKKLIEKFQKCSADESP
NUAK2 (human), sequence (Q9H093 whole entry, looked up): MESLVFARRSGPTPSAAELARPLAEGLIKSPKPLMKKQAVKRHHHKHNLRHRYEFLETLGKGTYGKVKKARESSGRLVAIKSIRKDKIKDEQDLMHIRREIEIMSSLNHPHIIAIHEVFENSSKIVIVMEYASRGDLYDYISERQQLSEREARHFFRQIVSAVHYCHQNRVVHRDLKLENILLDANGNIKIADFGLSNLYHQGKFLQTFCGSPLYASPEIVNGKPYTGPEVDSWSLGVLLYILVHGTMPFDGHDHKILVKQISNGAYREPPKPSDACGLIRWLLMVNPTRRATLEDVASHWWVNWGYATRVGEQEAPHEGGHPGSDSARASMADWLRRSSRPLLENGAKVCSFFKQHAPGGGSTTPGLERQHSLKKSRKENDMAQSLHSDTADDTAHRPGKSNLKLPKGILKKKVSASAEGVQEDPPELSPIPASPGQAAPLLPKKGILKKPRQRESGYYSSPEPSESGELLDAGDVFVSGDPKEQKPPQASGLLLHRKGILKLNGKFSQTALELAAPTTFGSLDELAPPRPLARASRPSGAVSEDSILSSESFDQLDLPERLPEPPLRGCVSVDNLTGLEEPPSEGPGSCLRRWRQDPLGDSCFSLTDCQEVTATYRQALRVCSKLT
MKNK1 (human), Q9BUB5 [T385D; 165-205 del], sequence (Q9BUB5 whole entry, looked up, stated change not applied): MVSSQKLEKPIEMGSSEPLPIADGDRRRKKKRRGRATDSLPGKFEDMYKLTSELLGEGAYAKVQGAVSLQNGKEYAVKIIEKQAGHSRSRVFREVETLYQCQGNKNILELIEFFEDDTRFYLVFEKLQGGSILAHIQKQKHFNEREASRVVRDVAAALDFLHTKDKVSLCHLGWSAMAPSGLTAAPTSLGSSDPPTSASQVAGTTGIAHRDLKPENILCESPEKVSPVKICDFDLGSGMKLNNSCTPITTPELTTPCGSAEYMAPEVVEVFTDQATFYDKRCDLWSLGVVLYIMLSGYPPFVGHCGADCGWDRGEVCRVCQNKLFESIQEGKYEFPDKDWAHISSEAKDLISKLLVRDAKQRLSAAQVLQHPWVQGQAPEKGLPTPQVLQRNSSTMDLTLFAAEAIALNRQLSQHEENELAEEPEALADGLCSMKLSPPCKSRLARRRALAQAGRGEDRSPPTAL
NEK11 (human), sequence (Q8NG66 whole entry, looked up): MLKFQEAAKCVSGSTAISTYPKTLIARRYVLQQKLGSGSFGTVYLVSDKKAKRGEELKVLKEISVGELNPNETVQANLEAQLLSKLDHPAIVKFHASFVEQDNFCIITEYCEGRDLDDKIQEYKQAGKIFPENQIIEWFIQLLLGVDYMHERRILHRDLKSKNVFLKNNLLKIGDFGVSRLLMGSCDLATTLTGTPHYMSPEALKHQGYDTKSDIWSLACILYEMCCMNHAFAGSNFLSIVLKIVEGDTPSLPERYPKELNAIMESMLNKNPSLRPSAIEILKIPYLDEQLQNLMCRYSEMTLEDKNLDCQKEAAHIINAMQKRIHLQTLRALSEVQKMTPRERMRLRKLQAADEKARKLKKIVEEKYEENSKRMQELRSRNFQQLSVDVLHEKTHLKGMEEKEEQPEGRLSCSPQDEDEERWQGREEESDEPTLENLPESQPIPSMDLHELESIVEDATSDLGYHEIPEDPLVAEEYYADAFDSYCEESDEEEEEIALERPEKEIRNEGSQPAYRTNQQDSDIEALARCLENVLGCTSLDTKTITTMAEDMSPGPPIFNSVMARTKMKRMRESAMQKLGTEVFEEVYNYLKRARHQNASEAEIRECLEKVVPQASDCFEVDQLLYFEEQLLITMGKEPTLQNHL
MELK (human), sequence (Q14680 whole entry, looked up): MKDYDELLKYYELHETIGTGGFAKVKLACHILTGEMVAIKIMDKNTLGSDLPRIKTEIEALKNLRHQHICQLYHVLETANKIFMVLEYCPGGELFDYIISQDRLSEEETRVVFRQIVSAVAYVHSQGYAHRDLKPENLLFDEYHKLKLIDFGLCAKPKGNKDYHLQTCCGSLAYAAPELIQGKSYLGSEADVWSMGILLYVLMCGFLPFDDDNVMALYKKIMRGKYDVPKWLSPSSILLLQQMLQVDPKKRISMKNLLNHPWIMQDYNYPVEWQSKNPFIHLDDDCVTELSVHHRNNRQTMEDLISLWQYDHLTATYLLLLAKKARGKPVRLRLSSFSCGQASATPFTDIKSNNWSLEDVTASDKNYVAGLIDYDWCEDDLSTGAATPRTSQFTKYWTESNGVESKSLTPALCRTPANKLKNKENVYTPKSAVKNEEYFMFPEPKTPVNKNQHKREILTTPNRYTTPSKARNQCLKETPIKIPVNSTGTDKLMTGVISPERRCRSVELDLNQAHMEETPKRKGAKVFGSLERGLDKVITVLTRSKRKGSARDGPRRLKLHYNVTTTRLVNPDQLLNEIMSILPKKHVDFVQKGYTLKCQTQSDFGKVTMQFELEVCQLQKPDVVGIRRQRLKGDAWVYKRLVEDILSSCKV
MAPK3 (human), sequence (P27361 whole entry, looked up): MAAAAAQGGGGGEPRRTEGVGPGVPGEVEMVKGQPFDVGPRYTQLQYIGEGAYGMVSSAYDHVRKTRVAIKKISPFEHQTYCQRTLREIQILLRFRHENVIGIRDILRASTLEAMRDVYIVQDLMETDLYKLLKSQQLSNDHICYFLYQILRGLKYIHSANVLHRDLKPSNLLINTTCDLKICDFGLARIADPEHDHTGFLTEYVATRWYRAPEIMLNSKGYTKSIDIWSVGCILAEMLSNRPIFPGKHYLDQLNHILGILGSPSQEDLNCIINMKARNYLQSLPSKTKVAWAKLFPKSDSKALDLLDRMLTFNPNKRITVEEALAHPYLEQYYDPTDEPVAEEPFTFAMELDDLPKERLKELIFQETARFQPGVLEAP
TSSK2 (human), sequence (Q96PF2 whole entry, looked up): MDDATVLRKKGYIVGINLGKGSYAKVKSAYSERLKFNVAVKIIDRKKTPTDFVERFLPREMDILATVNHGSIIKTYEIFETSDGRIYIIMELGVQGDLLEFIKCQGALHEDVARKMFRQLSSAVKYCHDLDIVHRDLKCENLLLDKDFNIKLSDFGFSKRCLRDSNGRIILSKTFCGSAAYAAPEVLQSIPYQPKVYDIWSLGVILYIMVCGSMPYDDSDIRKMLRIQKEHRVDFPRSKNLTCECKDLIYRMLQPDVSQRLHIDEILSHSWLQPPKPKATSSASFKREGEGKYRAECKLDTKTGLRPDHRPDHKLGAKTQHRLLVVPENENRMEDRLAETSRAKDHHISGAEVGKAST
STK11 (human), sequence (Q15831 whole entry, looked up): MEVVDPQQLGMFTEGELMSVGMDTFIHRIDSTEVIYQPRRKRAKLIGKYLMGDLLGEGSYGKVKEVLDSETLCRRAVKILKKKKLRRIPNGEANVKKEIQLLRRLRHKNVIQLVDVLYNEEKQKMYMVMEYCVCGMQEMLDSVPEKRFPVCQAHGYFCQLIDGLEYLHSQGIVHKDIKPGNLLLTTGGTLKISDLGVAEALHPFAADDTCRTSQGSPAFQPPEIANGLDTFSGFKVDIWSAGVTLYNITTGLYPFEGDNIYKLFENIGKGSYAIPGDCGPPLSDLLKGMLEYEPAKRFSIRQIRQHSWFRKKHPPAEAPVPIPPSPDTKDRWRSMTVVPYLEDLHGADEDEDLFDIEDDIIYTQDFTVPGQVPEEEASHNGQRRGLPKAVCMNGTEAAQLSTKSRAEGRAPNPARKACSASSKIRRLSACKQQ
HCK (human), sequence (P08631 whole entry, looked up): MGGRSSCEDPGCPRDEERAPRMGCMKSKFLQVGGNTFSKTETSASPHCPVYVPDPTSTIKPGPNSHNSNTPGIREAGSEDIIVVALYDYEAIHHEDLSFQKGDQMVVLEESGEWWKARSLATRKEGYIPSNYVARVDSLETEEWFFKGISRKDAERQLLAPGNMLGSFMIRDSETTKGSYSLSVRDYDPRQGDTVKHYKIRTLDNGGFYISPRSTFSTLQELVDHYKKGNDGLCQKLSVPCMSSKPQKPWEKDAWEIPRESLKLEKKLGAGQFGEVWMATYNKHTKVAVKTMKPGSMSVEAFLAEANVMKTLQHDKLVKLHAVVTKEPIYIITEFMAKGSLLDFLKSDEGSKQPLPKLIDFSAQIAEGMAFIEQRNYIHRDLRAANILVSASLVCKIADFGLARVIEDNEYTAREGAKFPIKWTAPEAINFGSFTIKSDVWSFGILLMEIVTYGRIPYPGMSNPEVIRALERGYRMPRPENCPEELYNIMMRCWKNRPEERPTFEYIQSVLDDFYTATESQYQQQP

COc1cc2ncnc(Nc3ccc(OCc4ccccc4)cc3)c2cc1OC
residual activity (CDK5 CDK5R1 p25 (human)): 97.8% | residual activity [1]: 101% | residual activity (MST4 (human)): 91.6% | residual activity (NEK11 (human)): 90.4% | residual activity (MATK (human)): 97.5% | residual activity (HCK (human)): 74.5% | residual activity (PRKX (human)): 105% | residual activity (MARK4 (human)): 99.5% | residual activity (RPS6KA2 KD1 KD2 (human)): 100% | residual activity (MAP4K4 (human)): 103% | residual activity (NUAK2 (human)): 101% | residual activity (STK17A (human)): 99.6% | residual activity (MARK3 (human)): 106% | residual activity (FYN (human)): 86.3% | residual activity (MELK (human)): 102% | residual activity (MKNK2 (human)): 88.1% | residual activity (AKT2 (human)): 101% | residual activity (MAPK3 (human)): 98.4% | residual activity (EPHA5 (human)): 105% | residual activity (PIM1 (human)): 102% | residual activity (PBK (human)): 109% | residual activity (EPHA7 (human)): 97% | residual activity (MAP3K8 (human)): 90.1% | residual activity (STK10 (human)): 68.2% | residual activity [2]: 103% | residual activity (CDK6 CCND3 (human)): 97.8% | residual activity (PKN1 (human)): 101% | residual activity (CHEK1 (human)): 101% | residual activity (RPS6KA1 KD1 KD2 (human)): 90.2% | residual activity (VRK1 (human)): 89% | residual activity (HIPK3 (human)): 85.3% | residual activity (EPHB3 (human)): 90% | residual activity (ROCK1 (human)): 96.6% | residual activity (BMX (human)): 89.7% | residual activity (TSSK2 (human)): 104% | residual activity (PRKCH (human)): 97.2% | residual activity (STK11 (human)): 102% | residual activity (PNCK (human)): 99% | residual activity (CSNK1G2 (human)): 98.4% | residual activity (PRKCD (human)): 101% | residual activity (MET (human)): 98.9% | residual activity (DYRK2 (human)): 111%

N#Cc1c[nH]c2c[nH]/c(=N\Cc3cccnc3)cc2/c1=N\c1ccc(F)c(Cl)c1
residual activity (CDK5 CDK5R1 p25 (human)): 78.3% | residual activity [1]: 73.2% | residual activity (MST4 (human)): 95% | residual activity (NEK11 (human)): 87.1% | residual activity (MATK (human)): 95.9% | residual activity (HCK (human)): 92.5% | residual activity (PRKX (human)): 101% | residual activity (MARK4 (human)): 96.4% | residual activity (RPS6KA2 KD1 KD2 (human)): 87.3% | residual activity (MAP4K4 (human)): 44.4% | residual activity (NUAK2 (human)): 135% | residual activity (STK17A (human)): 79.6% | residual activity (MARK3 (human)): 101% | residual activity (FYN (human)): 103% | residual activity (MELK (human)): 88% | residual activity (MKNK2 (human)): 79.3% | residual activity (AKT2 (human)): 101% | residual activity (MAPK3 (human)): 100% | residual activity (EPHA5 (human)): 90.6% | residual activity (PIM1 (human)): 92.7% | residual activity (PBK (human)): 84.8% | residual activity (EPHA7 (human)): 83.7% | residual activity (MAP3K8 (human)): 79.1% | residual activity (STK10 (human)): 52.8% | residual activity [2]: 103% | residual activity (CDK6 CCND3 (human)): 88.8% | residual activity (PKN1 (human)): 101% | residual activity (CHEK1 (human)): 90.2% | residual activity (RPS6KA1 KD1 KD2 (human)): 94.6% | residual activity (VRK1 (human)): 99.2% | residual activity (HIPK3 (human)): 96.5% | residual activity (EPHB3 (human)): 98.5% | residual activity (ROCK1 (human)): 99.8% | residual activity (BMX (human)): 84% | residual activity (TSSK2 (human)): 100% | residual activity (PRKCH (human)): 117% | residual activity (STK11 (human)): 91.1% | residual activity (PNCK (human)): 99.8% | residual activity (CSNK1G2 (human)): 102% | residual activity (PRKCD (human)): 95.2% | residual activity (MET (human)): 94.9% | residual activity (DYRK2 (human)): 95.5%

CN(C)c1ccc(/C=C2\C(=O)Nc3ccccc32)cc1
residual activity (CDK5 CDK5R1 p25 (human)): 102% | residual activity [1]: 97.3% | residual activity (MST4 (human)): 90.9% | residual activity (NEK11 (human)): 96.4% | residual activity (MATK (human)): 95.3% | residual activity (HCK (human)): 110% | residual activity (PRKX (human)): 104% | residual activity (MARK4 (human)): 97% | residual activity (RPS6KA2 KD1 KD2 (human)): 89.1% | residual activity (MAP4K4 (human)): 74.5% | residual activity (NUAK2 (human)): 94.3% | residual activity (STK17A (human)): 93.8% | residual activity (MARK3 (human)): 101% | residual activity (FYN (human)): 104% | residual activity (MELK (human)): 89.3% | residual activity (MKNK2 (human)): 90.5% | residual activity (AKT2 (human)): 98.1% | residual activity (MAPK3 (human)): 102% | residual activity (EPHA5 (human)): 109% | residual activity (PIM1 (human)): 101% | residual activity (PBK (human)): 101% | residual activity (EPHA7 (human)): 99.1% | residual activity (MAP3K8 (human)): 99.6% | residual activity (STK10 (human)): 95.4% | residual activity [2]: 103% | residual activity (CDK6 CCND3 (human)): 96.4% | residual activity (PKN1 (human)): 98.4% | residual activity (CHEK1 (human)): 98.2% | residual activity (RPS6KA1 KD1 KD2 (human)): 78.4% | residual activity (VRK1 (human)): 89% | residual activity (HIPK3 (human)): 94.4% | residual activity (EPHB3 (human)): 94.9% | residual activity (ROCK1 (human)): 98.3% | residual activity (BMX (human)): 92.2% | residual activity (TSSK2 (human)): 101% | residual activity (PRKCH (human)): 92.3% | residual activity (STK11 (human)): 99.4% | residual activity (PNCK (human)): 102% | residual activity (CSNK1G2 (human)): 96.7% | residual activity (PRKCD (human)): 95.6% | residual activity (MET (human)): 101% | residual activity (DYRK2 (human)): 100%

O=C1Nc2ccc(Br)cc2/C1=C\c1cc2c([nH]1)CCCC2
residual activity (CDK5 CDK5R1 p25 (human)): 91.3% | residual activity [1]: 106% | residual activity (MST4 (human)): 87.9% | residual activity (NEK11 (human)): 111% | residual activity (MATK (human)): 94.2% | residual activity (HCK (human)): 88.5% | residual activity (PRKX (human)): 97.2% | residual activity (MARK4 (human)): 82.9% | residual activity (RPS6KA2 KD1 KD2 (human)): 72% | residual activity (MAP4K4 (human)): 6.84% | residual activity (NUAK2 (human)): 133% | residual activity (STK17A (human)): 72.9% | residual activity (MARK3 (human)): 84.9% | residual activity (FYN (human)): 87.5% | residual activity (MELK (human)): 75.6% | residual activity (MKNK2 (human)): 87.1% | residual activity (AKT2 (human)): 90.3% | residual activity (MAPK3 (human)): 95% | residual activity (EPHA5 (human)): 91.3% | residual activity (PIM1 (human)): 101% | residual activity (PBK (human)): 87.8% | residual activity (EPHA7 (human)): 85.3% | residual activity (MAP3K8 (human)): 105% | residual activity (STK10 (human)): 65.5% | residual activity [2]: 86% | residual activity (CDK6 CCND3 (human)): 85.8% | residual activity (PKN1 (human)): 91.7% | residual activity (CHEK1 (human)): 81.8% | residual activity (RPS6KA1 KD1 KD2 (human)): 70.4% | residual activity (VRK1 (human)): 108% | residual activity (HIPK3 (human)): 96.7% | residual activity (EPHB3 (human)): 99.7% | residual activity (ROCK1 (human)): 98.8% | residual activity (BMX (human)): 89.9% | residual activity (TSSK2 (human)): 89.8% | residual activity (PRKCH (human)): 97.4% | residual activity (STK11 (human)): 88.7% | residual activity (PNCK (human)): 98.6% | residual activity (CSNK1G2 (human)): 96.8% | residual activity (PRKCD (human)): 95.6% | residual activity (MET (human)): 81.6% | residual activity (DYRK2 (human)): 90.8%
